{"source": "patent US20180215734A1", "about": "“PYRIMIDINE DERIVATIVES AS KINASE INHIBITORS AND THEIR THERAPEUTICAL APPLICATIONS” (NantBioScience, Inc., priority 2016, published 2018)", "key": {"[1]": {"tested_on": "KG1a", "assay": "Inhibition of proliferation (CellTiterblue, 72 hr), KG1a", "type": "cell-based, human", "description": "(§1) A number of studies were performed to analyze the consequences of tyrosine kinase inhibition in cell lines. To do this, 1000 cells are seeded in 27 μl/well in 384-well microplates, which are then placed in a humidified CO2 incubator at 37° C. overnight. The next day, 3 μl/well of 10× concentrated drug is added and the plates are returned to the incubator for 72 hr. After 72 hr incubation, plates are removed and 6 μl/well CellTiterblue (Promega) viability reagent is added. Plates are returned to the incubator for 3 hrs, after which fluorescence measurements are read on the Victor X3 plate reader (Perkin Elmer). Data are analyzed using Excel (Microsoft), and GI50 values are determined using Prism (Graphpad)."}, "[2]": {"tested_on": "SNU16", "assay": "Inhibition of proliferation (CellTiterblue, 72 hr), SNU16", "type": "cell-based", "settings": "Homo sapiens, SNU-16, 72 h", "description": "as §1"}, "[3]": {"tested_on": "RT112", "assay": "Inhibition of proliferation (CellTiterblue, 72 hr), RT112", "type": "cell-based", "settings": "Homo sapiens, RT-112, 72 h", "description": "as §1"}, "[4]": {"tested_on": "TG1a Human AML Xenograft", "assay": "Antitumor efficacy on TG1a human AML xenograft", "type": "in vivo, mouse", "description": "In this Example the antitumor activity of compounds 14, 17, 19, 45, and 48 of the current invention are tested using an art-recognized xenograft model of AML. (“T/C” refers to the ratio of the tumor's size in treated animals versus the tumor size in control untreated animals. “BWC” refers to “body weight change”)."}, "[5]": {"target": "FGFR2(h) (Homo sapiens, UniProt P21802)", "sequence (P21802 22-821)": "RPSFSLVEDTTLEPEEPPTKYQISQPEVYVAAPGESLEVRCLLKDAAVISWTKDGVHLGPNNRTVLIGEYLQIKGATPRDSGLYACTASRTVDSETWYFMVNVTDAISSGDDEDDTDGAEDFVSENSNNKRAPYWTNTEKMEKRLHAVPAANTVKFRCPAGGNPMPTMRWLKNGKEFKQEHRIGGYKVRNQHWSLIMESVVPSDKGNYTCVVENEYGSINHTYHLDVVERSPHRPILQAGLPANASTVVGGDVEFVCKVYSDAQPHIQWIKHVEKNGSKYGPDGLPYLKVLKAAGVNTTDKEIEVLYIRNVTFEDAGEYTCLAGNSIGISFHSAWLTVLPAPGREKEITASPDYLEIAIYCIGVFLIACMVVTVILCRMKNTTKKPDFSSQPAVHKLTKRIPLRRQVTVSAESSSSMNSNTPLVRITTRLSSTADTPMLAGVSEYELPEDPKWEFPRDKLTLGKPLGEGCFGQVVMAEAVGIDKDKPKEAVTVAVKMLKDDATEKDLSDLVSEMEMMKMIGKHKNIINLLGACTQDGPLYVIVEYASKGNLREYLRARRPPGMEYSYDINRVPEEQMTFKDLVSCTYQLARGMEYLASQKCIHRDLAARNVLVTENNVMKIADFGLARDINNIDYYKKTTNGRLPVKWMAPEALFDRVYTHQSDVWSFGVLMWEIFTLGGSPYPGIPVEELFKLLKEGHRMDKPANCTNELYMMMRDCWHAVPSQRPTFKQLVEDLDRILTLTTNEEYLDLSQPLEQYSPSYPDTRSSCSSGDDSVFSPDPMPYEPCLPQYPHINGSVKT", "assay": "Kinase assay, FGFR2(h)", "type": "biochemical"}, "[6]": {"target": "FGFR4(h) (Homo sapiens, UniProt P22455)", "assay": "Kinase assay, FGFR4(h)", "type": "biochemical"}, "[7]": {"target": "Flt4(h) (Homo sapiens, UniProt P35916)", "assay": "Kinase assay, Flt4(h)", "type": "biochemical"}, "[8]": {"target": "Aurora-A (h) (Homo sapiens, UniProt O14965)", "sequence (O14965 whole entry)": "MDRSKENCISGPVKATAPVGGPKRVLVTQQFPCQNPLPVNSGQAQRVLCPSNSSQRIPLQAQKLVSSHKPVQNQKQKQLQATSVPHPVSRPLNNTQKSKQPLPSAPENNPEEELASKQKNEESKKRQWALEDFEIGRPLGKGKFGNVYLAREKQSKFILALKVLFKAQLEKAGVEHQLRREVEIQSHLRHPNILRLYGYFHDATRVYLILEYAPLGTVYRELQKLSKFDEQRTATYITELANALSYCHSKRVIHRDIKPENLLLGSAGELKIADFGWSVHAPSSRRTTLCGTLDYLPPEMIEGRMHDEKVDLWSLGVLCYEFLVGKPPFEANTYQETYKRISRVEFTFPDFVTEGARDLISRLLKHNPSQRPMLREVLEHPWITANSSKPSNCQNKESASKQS", "assay": "Kinase assay, Aurora-A (h)", "type": "biochemical"}, "[9]": {"target": "Axl(h) (Homo sapiens, UniProt P30530)", "sequence (P30530 26-894)": "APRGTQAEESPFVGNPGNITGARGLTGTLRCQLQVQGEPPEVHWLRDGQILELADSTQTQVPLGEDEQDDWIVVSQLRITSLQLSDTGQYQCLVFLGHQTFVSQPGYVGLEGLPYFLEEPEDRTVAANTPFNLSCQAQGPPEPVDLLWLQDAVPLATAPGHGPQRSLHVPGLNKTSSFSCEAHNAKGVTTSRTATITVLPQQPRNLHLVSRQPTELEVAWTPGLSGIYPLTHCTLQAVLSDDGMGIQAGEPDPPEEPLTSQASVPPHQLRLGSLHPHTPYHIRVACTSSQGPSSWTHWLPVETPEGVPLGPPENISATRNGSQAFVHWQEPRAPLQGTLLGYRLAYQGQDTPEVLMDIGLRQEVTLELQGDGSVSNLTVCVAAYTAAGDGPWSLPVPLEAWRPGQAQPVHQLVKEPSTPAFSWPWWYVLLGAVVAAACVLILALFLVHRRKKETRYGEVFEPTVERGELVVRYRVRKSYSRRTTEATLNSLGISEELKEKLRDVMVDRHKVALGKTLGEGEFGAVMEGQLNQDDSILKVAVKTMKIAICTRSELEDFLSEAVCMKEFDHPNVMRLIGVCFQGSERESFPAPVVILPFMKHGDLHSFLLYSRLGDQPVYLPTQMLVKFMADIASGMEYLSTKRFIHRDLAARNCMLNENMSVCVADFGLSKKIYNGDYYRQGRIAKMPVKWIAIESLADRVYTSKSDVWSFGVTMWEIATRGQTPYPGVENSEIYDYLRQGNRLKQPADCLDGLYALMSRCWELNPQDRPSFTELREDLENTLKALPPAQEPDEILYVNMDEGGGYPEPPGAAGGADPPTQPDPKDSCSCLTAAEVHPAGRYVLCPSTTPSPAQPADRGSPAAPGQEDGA", "assay": "Kinase assay, Axl(h)", "type": "biochemical"}, "[10]": {"target": "MEK1(h) (Homo sapiens, UniProt Q02750)", "assay": "Kinase assay, MEK1(h)", "type": "biochemical"}, "[11]": {"target": "Met(h) (Homo sapiens, UniProt P08581)", "sequence (P08581 25-1390)": "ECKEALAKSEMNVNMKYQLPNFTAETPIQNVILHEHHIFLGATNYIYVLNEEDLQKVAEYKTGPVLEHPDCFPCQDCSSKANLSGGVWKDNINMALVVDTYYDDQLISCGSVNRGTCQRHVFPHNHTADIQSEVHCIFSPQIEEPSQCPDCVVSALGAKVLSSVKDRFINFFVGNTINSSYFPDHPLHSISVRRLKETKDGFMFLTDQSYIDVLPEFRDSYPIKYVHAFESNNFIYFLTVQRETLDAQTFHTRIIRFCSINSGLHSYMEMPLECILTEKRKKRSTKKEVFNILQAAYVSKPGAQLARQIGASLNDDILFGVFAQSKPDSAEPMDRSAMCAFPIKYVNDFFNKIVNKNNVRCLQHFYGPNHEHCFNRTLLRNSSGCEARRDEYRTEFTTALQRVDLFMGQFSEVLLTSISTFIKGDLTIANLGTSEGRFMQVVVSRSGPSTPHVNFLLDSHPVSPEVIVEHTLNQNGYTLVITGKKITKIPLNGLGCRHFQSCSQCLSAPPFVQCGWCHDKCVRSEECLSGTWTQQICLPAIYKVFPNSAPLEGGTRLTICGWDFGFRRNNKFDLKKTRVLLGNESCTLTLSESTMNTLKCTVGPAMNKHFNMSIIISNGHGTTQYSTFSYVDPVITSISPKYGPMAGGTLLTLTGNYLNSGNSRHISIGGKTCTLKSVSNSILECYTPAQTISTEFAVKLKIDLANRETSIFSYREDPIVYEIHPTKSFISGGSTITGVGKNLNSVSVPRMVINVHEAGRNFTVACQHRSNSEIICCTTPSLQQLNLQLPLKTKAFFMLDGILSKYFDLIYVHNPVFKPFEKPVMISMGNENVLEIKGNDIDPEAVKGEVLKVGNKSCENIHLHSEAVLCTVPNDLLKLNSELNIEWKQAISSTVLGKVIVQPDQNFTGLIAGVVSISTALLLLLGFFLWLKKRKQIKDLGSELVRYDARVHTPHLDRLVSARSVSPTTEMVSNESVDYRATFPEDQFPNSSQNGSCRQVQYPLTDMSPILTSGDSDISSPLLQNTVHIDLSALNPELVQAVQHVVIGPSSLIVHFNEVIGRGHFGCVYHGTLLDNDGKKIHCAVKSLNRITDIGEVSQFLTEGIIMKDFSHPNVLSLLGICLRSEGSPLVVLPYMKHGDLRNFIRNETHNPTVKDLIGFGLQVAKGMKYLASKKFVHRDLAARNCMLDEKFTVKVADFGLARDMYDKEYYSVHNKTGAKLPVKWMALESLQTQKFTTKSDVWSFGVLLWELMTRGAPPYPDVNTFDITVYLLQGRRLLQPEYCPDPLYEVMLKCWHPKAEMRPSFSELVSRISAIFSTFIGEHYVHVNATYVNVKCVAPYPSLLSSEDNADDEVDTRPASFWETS", "assay": "Kinase assay, Met(h)", "type": "biochemical"}, "[12]": {"target": "Tie2(h) (Homo sapiens, UniProt Q02763)", "sequence (Q02763 23-1124)": "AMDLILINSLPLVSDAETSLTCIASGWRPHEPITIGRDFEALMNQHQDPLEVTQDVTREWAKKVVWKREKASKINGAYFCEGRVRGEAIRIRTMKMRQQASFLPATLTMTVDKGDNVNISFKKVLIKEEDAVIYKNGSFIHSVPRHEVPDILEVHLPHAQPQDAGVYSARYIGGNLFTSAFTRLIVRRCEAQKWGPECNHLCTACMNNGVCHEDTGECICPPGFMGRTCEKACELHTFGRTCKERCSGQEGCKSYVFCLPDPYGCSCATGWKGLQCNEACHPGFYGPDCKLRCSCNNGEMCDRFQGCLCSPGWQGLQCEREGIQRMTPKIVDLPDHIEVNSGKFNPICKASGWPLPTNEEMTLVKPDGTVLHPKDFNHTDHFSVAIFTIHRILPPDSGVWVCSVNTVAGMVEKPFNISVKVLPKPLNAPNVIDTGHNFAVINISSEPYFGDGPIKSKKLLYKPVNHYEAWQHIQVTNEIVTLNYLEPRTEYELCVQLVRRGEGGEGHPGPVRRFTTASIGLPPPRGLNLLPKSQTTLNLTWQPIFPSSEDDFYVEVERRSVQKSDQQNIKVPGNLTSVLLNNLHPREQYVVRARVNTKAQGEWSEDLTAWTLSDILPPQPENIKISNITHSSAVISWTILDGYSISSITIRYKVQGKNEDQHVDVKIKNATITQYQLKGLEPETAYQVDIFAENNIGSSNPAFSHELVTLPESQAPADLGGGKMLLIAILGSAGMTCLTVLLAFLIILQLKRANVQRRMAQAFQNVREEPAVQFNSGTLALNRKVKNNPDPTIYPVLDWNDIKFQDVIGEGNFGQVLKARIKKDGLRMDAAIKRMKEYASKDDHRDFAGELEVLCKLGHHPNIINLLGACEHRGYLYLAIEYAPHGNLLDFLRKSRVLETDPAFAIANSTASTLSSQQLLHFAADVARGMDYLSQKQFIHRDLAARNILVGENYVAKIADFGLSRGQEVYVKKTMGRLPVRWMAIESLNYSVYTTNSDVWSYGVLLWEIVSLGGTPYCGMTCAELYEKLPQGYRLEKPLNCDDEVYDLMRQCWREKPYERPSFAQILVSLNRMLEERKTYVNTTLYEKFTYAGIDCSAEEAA", "assay": "Kinase assay, Tie2(h)", "type": "biochemical"}, "[13]": {"tested_on": "Parental BaF3 cells", "assay": "BaF3 cell model, Parental", "type": "cell-based", "settings": "Mus musculus, read-out: IC5o(nM) Parental", "description": "(§2) In FIG. 1 these kinases are from the fibroblast growth factor receptor class of kinases (FGFR1-FGFR4). Compound 19 kinase inhibitory activity FGFR1-FGFR4 are also depicted in Table 5."}, "[14]": {"target": "T1, FGFR1 (Homo sapiens, UniProt P11362)", "T1 construct": "expressed in transfected cells; host or cells: BaF3", "assay": "BaF3 cells engineered for expression of FGFR1", "type": "cell-based", "settings": "read-out: IC5o(nM) FGFR1", "description": "as §2"}, "[15]": {"target": "T2, FGFR2 (Homo sapiens, UniProt P21802)", "T2 construct": "expressed in transfected cells; host or cells: BaF3", "T2 sequence (P21802 22-821, species assumed)": "as the sequence (P21802 22-821) above", "assay": "BaF3 cells engineered for expression of FGFR2", "type": "cell-based", "settings": "read-out: IC5o(nM) FGFR2", "description": "as §2"}, "[16]": {"assay": "Cellular toxicity, HepG2 cell line", "type": "cell-based", "settings": "human, HepG2 cells", "description": "(§3) Table 9 discloses toxicity data for compound 19 from various toxicity tests well known to those of ordinary skill."}, "[17]": {"assay": "In vivo acute toxicity, MTD", "settings": "PO, rat", "description": "as §3"}, "[18]": {"target": "hERG (Homo sapiens, UniProt Q12809)", "assay": "Cardiovascular toxicity, hERG", "description": "as §3"}, "[19]": {"target": "CYP450 1A2 (Homo sapiens, UniProt P05177)", "assay": "CYP450 inhibition, 1A2", "type": "in vitro ADME", "description": "as §3"}, "[20]": {"target": "CYP450 2D6 (Homo sapiens, UniProt P10635)", "sequence (P10635 whole entry)": "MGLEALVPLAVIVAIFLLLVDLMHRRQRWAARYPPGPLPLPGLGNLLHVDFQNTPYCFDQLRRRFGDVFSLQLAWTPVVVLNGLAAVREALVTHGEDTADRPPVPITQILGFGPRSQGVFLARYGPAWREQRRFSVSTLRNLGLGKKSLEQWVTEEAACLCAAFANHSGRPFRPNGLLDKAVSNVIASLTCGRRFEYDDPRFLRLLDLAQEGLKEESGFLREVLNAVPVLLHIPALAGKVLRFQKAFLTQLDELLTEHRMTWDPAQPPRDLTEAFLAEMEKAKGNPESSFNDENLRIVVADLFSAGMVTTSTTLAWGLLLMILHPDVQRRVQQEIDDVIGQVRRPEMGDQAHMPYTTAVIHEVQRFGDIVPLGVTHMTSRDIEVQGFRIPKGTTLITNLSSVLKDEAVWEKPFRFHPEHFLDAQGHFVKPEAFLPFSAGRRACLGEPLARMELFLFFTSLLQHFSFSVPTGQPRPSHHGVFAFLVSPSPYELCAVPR", "assay": "CYP450 inhibition, 2D6", "type": "in vitro ADME", "description": "as §3"}, "[21]": {"tested_on": "nude mouse model of AML", "assay": "Nude mouse model of AML (FIG. 2, FIG. 3)", "type": "in vivo"}}, "data": [{"smiles": "Cc1cc2c(F)c(Oc3ncnc(Nc4ccc(N5C[C@@H](C)N[C@@H](C)C5)cc4)c3C#N)cc(F)c2[nH]1", "note": "[Compound 19]", "values": [{"measurement": "GI50", "setting": "[1]; Homo sapiens, KG-1a, 72 hr", "result": 0.2, "unit": "nM"}, {"measurement": "Anti-proliferation activity in KG1a (in words)", "setting": "[1]; proliferation assay of Example 2", "result": "especially effective"}, {"measurement": "GI50", "setting": "[2]", "result": 12, "unit": "nM"}, {"measurement": "GI50", "setting": "[3]", "result": 66, "unit": "nM"}, {"measurement": "BWC (%)", "setting": "[4]; 5 mg/kg, Qdx10, IP", "result": "−4.1", "unit": "%"}, {"measurement": "T/C (%) (day14)", "setting": "[4]; 5 mg/kg, Qdx10, IP", "result": "−69.7", "unit": "%"}, {"measurement": "BWC (%)", "setting": "[4]; 10 mg/kg, Qdx10, IP", "result": "−6.3", "unit": "%"}, {"measurement": "T/C (%) (day14)", "setting": "[4]; 10 mg/kg, Qdx10, IP", "result": "−83.7", "unit": "%"}, {"measurement": "BWC (%) (d7)", "setting": "[4]; 20 mg/kg, Qdx10, IP, d7", "result": "−26.2", "unit": "%"}, {"measurement": "T/C (%) (day7)", "setting": "[4]; 20 mg/kg, Qdx10, IP, day7", "result": "−68.7", "unit": "%"}, {"measurement": "Weight loss in dose-response study (FIGS. 4 and 5)", "setting": "[4]; highest dose, 20 mg/kg", "result": "significant weight loss"}, {"measurement": "IC50", "setting": "[5]", "result": 11, "unit": "nM"}, {"measurement": "IC50", "setting": "[6]", "result": 12, "unit": "nM"}, {"measurement": "IC50", "setting": "[7]", "result": 116, "unit": "nM"}, {"measurement": "IC50", "setting": "[8]", "result": "> 1000", "unit": "nM"}, {"measurement": "IC50", "setting": "[9]", "result": "> 1000", "unit": "nM"}, {"measurement": "IC50", "setting": "[10]", "result": "> 1000", "unit": "nM"}, {"measurement": "IC50", "setting": "[11]", "result": "> 1000", "unit": "nM"}, {"measurement": "IC50", "setting": "[12]", "result": "> 1000", "unit": "nM"}, {"measurement": "IC50", "setting": "[13]", "result": 1890, "unit": "nM"}, {"measurement": "IC50", "setting": "[14]", "result": 11.4, "unit": "nM"}, {"measurement": "IC50", "setting": "[15]", "result": 17.6, "unit": "nM"}, {"measurement": "CC50", "setting": "[16]", "result": 1900, "unit": "nM"}, {"measurement": "MTD", "setting": "[17]", "result": 100, "unit": "mg/kg"}, {"measurement": "IC50", "setting": "[18]", "result": "> 30000", "unit": "nM"}, {"measurement": "IC50", "setting": "[19]", "result": 72000, "unit": "nM"}, {"measurement": "IC50", "setting": "[20]", "result": "> 100000", "unit": "nM"}, {"measurement": "Antitumor activity (tumor cells expansion), FIG. 2", "setting": "[21]; both dosages tested", "result": "near complete suppression of the tumor cells expansion"}, {"measurement": "Animal weight as surrogate marker for toxicity, FIG. 3", "setting": "[21]; vs control", "result": "no difference between the control and compound 19 treated animals"}]}]}
